From patent US20030044797A1, “Detection of CYP2D6 polymorphisms” (priority 2000, published 2003)

Test system: CYP2D6 enzyme
Experiment: debrisoquine metabolic ratio (MR) phenotyping of study participants, correlated with CYP2D6 5′ flanking region haplotypes
Type: in vivo, human
Experimental: The study was performed in accordance with the principles stated in the Declaration of Helsinki as reviewed in Tokyo 1975 and Venice 1983, Hong Kong 1989 and Somerset West 1996. Subjects were preferably not related to each other. Based on questioning, individuals having one of the following were excluded: a medical condition judged to influence liver function or requiring pharmacological treatment; any on-going disease; intake of any drug, except oral contraceptives, during one week prior to the study; breast-feeding or pregnancy. No physical examination was performed. For these experiments, a single oral dose of 10 mg debrisoquine (Declinax, Hoffman-LaRoche) was taken in the evening before bed-time. The bladder was emptied before drug intake. All urine was then collected overnight (about 8 hours) A single blood sample was collected 3 hours after drug intake.
White blood cells isolated from a blood sample drawn from the brachial vein serve as the source of the genomic DNA for the analyses. The DNA was extracted by guanidine thiocyanate method or QlAamp Blood Kit (QIAGEN, Venlo, The Netherlands). The genes included in the study were amplified by PCR and the DNA sequences were determined by the technology most suitable for the specific fragment. […] Case Report Forms were designed and used for clinical and genetic data collection. Data was entered and stored in a relational database at Gemini Genomics AB, Uppsala. To secure consistency between the Case Report Forms and the database, data was checked either by double data entry or proofreading. After a Clean File was declared the database was protected against changes. By using the program Stat/Transfer™ the database was transferred to SAS data sets. The SAS™ system was used for tabulations and statistical evaluations. Genotypes and haplotypes were correlated against the metabolic ratio.
This analysis was performed using software based on maximum likelihood methodology and using the EM algorithm of Excoffier et al. (1995), Mol Biol Evol. 12:921-927. […] From the haplotype information two different kinds of variables were created: one variable was formed as a haplotype combination variable (HTYPE). This variable has the value H1/H2 when the subject has haplotypes 1 and 2, etc. Variables H1, H2, H3 and H4 are haplotype annotations that denote the number of copies of that particular haplotype for the subject, e.g., for a subject with haplotype H1/H2 the variables H1, H2, H3 and H4 will be 1, 1, 0 and 0, respectively. Each of these variables can thus take on the values 0, 1 or 2. Only the four most frequent haplotypes were considered when those variables were formed.

MR-range (min-max) (HTYPE H1/H1): 0.03-110
MR (Debr), predicted metabolic ratio (HTYPE H1/H1, 89% (49/55) in MR-range): <0.8
MR-range (min-max) (HTYPE H1/H2): 0.06-1.04
MR (Debr), predicted metabolic ratio (HTYPE H1/H2, 81% (52/64) in MR-range): <0.4
MR-range (min-max) (HTYPE H1/H3): 0.08-2.40
MR (Debr), predicted metabolic ratio (HTYPE H1/H3, 74% (14/19) in MR-range): 0.4-2.0
MR-range (min-max) (HTYPE H1/H4): 0.18-143
MR (Debr), predicted metabolic ratio (HTYPE H1/H4, 74% (20/27) in MR-range): 0.4-7.0
MR-range (min-max) (HTYPE H2/H2): 0.13-1.44
MR (Debr), predicted metabolic ratio (HTYPE H2/H2, 89% (17/19) in MR-range): <0.8
MR-range (min-max) (HTYPE H2/H3): 0.13-2.29
MR (Debr), predicted metabolic ratio (HTYPE H2/H3, 86% (6/7) in MR-range): 0.2-7.0
MR-range (min-max) (HTYPE H2/H4): 0.33-3.70
MR (Debr), predicted metabolic ratio (HTYPE H2/H4, 82% (14/17) in MR-range): 0.4-2.0
MR-range (min-max) (HTYPE H3/H3): 0.85-5.17
MR (Debr), predicted metabolic ratio (HTYPE H3/H3, 100% (3/3) in MR-range): 0.8-7.0
MR-range (min-max) (HTYPE H3/H4): 1.46-6.54
MR (Debr), predicted metabolic ratio (HTYPE H3/H4, 100% (5/5) in MR-range): 0.8-7.0
MR-range (min-max) (HTYPE H4/H4): 26.3-236
MR (Debr), predicted metabolic ratio (HTYPE H4/H4, 100% (16/16) in MR-range): >12.6
mr50 (metabolic ratio of the 50th percentile) (haplotype H1/H1, n = 53, single oral dose 10 mg debrisoquine): mr50 = 0.22
mr50 (metabolic ratio of the 50th percentile) (haplotype H1/—, n = 108): mr50 = 0.375
mr50 (metabolic ratio of the 50th percentile) (haplotype H2/H2, n = 19): mr50 = 0.3
mr50 (metabolic ratio of the 50th percentile) (haplotype H2/—, n = 88): mr50 = 0.335
mr50 (metabolic ratio of the 50th percentile) (haplotype H3/H3, n = 3): mr50 = 2.08
mr50 (metabolic ratio of the 50th percentile) (haplotype H3/—, n = 31): mr50 = 0.64
mr50 (metabolic ratio of the 50th percentile) (haplotype H4/H4, n = 16): mr50 = 88
mr50 (metabolic ratio of the 50th percentile) (haplotype H4/—, n = 49): mr50 = 0.86
mr50 (metabolic ratio of the 50th percentile) (no H1 copy (—/—), n = 71): mr50 = 0.87
mr50 (metabolic ratio of the 50th percentile) (no H2 copy (—/—), n = 125): mr50 = 0.56
mr50 (metabolic ratio of the 50th percentile) (no H3 copy (—/—), n = 198): mr50 = 0.34
mr50 (metabolic ratio of the 50th percentile) (no H4 copy (—/—), n = 167): mr50 = 0.27
SMILES: N=C(N)N1CCc2ccccc2C1 [debrisoquine]
